Laboratory results reported in patent publication US9598448B2, “Osmium (II) arene imino anti-cancer complexes” (University of Warwick, priority 2010, dated 2017).
“Also recorded” adds a separate entry of the source. Where two headings read alike, the source gives them in different places.

Columns and labels:
[1] = tested on: human ovarian A2780 cancer cells; assay: SRB growth inhibition assay, A2780; format: cell-based
Experimental: The concentrations of the osmium complexes that inhibit 50% of the proliferation of human ovarian A2780 cancer cells were determined by sulforhodamine B test. A2780 cells were seeded in 96-well plate (Falcon) at 5000 cells/well, after the incubation for 48 h, The complexes were solubilised in DMSO (Sigma) to provide 10 mM stocks. The stocks were serially diluted by cell culture media to give concentrations four-fold than the final concentrations for the assay. The dilutions of complexes in cell culture media were added to the 96-well plate with cells in triplicates to achieve the final concentrations. The final DMSO concentration in each well was no more than 1% (v/v). The complexes were removed after 24 h. The cells were washed with Phosphate Buffered Saline once and cell culture media was added 150 μL/well. The cells were recovered for 72 h. The surviving cells were fixed by adding 150 μL/well of 50% (w/v) trichloroacetic acid and incubated for 1 h at 277 K (277 K). The plates were washed with tap water three times and dried under a flow of warm air, 0.4% sulforhodamine B (Sigma) solution 100 μL/well followed by washing with 1% acetic acid five times and dried under a flow of warm air. The dye was dissolved in 10 mM Tris buffer […] The absorbance of each well was obtained by the Multiskan Ascent plate reader (Labsystems) at 540 nm. The absorbance value of SRB in each well is directly proportional to the cell number. Then the absorbance can be plotted against concentration and the IC50 determined by using Origin software.
The cytotoxicity studies were carried out as described previously above.

[2] = tested on: tubulin; assay: Tubulin polymerization assay; format: biochemical; conditions: 37° C., 60 min; for Inhibition of Tubulin Polimerziation: Osmium Compounds at 10 μM
Experimental: To follow the anticancer mechanism indicated by COMPARE, We have investigated whether osmium complexes can interacted directly with tubulin.
A Cytoskeleton tubulin polymerization assay kit (catalog no BK004) was used in the tubulin polymerization study. Briefly, 10 μL of general tubulin buffer (80 mM PIPES, pH 6.9, 2 mM MgCl2, and 0.5 mM EGTA) containing osmium compound, colchicine or taxol was pipetted into the prewarmed 96 well microplate. Tubulin (defrosted to room temperature from −80° C. and then placed on ice before use) was diluted with tubulin polymerization buffer with 1 mM GTP to a final concentration of 4 mg mL^−1. Diluted tubulin (100 μL) was added into the wells containing osmium compound, colchicine or taxol. Diluted tubulin (100 μL) mixed with general tubulin buffer (10 μL) served as control. The absorbance at 340 nm was read immediately with a Tecan microplate reader.

[3] = tested on: A2780/cis ovarian (cisplatin-resistant); assay: MTT growth inhibition assay, A2780/cis; format: cell-based, human; conditions: 96 h
Experimental: (§1) Tumor cell growth inhibition was assessed using the MTT assay.^13 2×10^3 cells were inoculated into a 96-well plate and incubated overnight at 37° C. in a humidified atmosphere containing 5% CO2. Complexes were solubilised in DMSO as above, and then diluted in complete cell culture medium to give a broad range of concentrations. Cisplatin was included in the screen as a comparator. Medium was removed from each well and replaced with complex or control solutions, and the plates then incubated for a further 96 hours. After 96 h culture medium was removed and 200 μL of 0.5 mg mL^−1 MTT solution (Sigma) in complete medium added to each well. Following further 4 h incubation, the solution was removed from each well and 150 μL of DMSO (Sigma) added to solubilise the formazan crystals resulting from MTT conversion. Absorbance values for the resulting solutions were read at 550 nm on a microplate reader and cell survival calculated as the absorbance of treated cells divided by the control. Results were expressed in terms of IC50 values (i.e. concentration of compound required to kill 50% of cells) and all experiments were performed in triplicate.
(§2) The following human cancer cell lines were cultured in RPMI 1640 cell culture medium supplemented with 1 mM sodium pyruvate, 2 mM L-glutamine and 10% fetal bovine serum (all from Sigma): A549 non-small cell lung, HCT-116 colon, MCF-7 breast, PC-3 prostate (all from LGC Promochem, Teddington, UK), A2780/cis ovarian (cisplatin-resistant) and RT-112 bladder (both from ECACC, Salisbury, UK).

[4] = tested on: A549 non-small cell lung; assay: MTT growth inhibition assay, A549; format: cell-based, human; conditions: 96 h
Experimental: as §1, §2

[5] = tested on: HCT-116 colon; assay: MTT growth inhibition assay, HCT-116; format: cell-based, human; conditions: 96 h
Experimental: as §1, §2

[6] = tested on: MCF-7 breast; assay: MTT growth inhibition assay, MCF-7; format: cell-based, human; conditions: 96 h
Experimental: as §1, §2

[7] = tested on: PC-3 prostate; assay: MTT growth inhibition assay, PC-3; format: cell-based, human; conditions: 96 h
Experimental: as §1, §2

[8] = tested on: RT-112 bladder; assay: MTT growth inhibition assay, RT-112; format: cell-based, human; conditions: for IC50: MTT, 96 h
Experimental: as §1, §2

[9] = tested on: human tumor 60-cell line panel; conditions: Data from NCI/DTP screening: October 2009, 48 h incubation; cited from earlier work
[10] = tested on: HCT-116 colon adenocarcinoma s.c. xenograft model; assay: In vivo efficacy in HCT-116 s.c. xenograft model; conditions: 8.0 mg kg^−1
[11] = Stability and hydrolysis (1H NMR, MS, UV-vis); format: physicochemical; conditions: 310 K, 24 h, 95% deuterated phosphate buffer (10 mM)/5% MeOD-d4
[12] = tested on: human A549 lung cancer cells; conditions: cited from earlier work
[13] = cited from earlier work
[14] = tested on: Balb/c immunodeficient nude mice bearing HCT-116 tumours; assay: Evaluation of in vivo toxicity in nude mouse HCT-116 xenograft model; conditions: i.v. day 0, doses from 2 up to 40 mg kg^−1, monitored 15 days
Experimental: Female Balb/c immunodeficient nude mice (Harlan, Loughborough, UK) aged 6-12 weeks were used. Mice received Harlan 2018 diet (Harlan) and water ad libitum. Mice were kept in cages in an air-conditioned room with regular alternating cycles of light and darkness. All animal procedures were carried out under a project license issued by the UK Home Office and UKCCCR guidelines (Workman P, Twentyman P, Balkwill F et al: United Kingdom Co-ordinating Committee on Cancer Research (UKCCCR) Guidelines for the Welfare of Animals in Experimental Neoplasia (Second Edition). Br J Cancer 77: 1-10, 1998) were followed throughout.
HCT-116 was used in the study. Tumours were excised from a donor animal, placed in sterile physiological saline containing antibiotics and cut into small fragments of approximately 2 mm^3. Under brief general inhalation anaesthesia, fragments were implanted in the […] abdominal flank of each mouse using a trocar. Once the tumours could accurately be measured using callipers (mean tumour volume of approximately 50 mm^3), treatment commenced. Complexes 3 and 6 were solubilised in 10% DMSO; 5% Tween-80; 85% saline and were administered intravenously to groups of 2 mice on day 0. Animals were weighed frequently and monitored for any deleterious effects over a period of 15 days.

[15] = pKa of hydroxyl group; format: physicochemical
[16] = SRB, 24 h exposure, 72 h recovery, read-out: IC50 to A2780 cell line
[17] = SRB, 24 h exposure, 72 h recovery, read-out: IC50 values for azopyridine complexes against A2780 ovarian cancer cells
[18] = A2780 human ovarian cancer cells, read-out: IC50 values against A2780
[19] = SRB, 24 h exposure, 72 h recovery, read-out: IC50 values for iminopyridine complexes against A2780 ovarian cancer cells

[Os(η^6-p-cym)(2-I-Azpy)I]PF6 [FY067]
IC50 [1, 16]: 2400 nM

[Os(η^6-bip)(pp-OH)Cl]PF6 [FY150]
IC50 [1, 16]: 2400 nM

[Os(η^6-bip)(pp)Cl]PF6 [FY098]
IC50 [1, 16]: 4600 nM

Cc1ccc(C(C)C)cc1.F[P-](F)(F)(F)(F)F.[I-].[Os+2].c1ccc(N=Nc2ccccn2)cc1 [Complex 2, [(η^6-p-cym)Os(Azpy)I]PF6]
IC50 [1, 17]: 10200 nM

[Os(η^6-p-cym)(abpy))I]PF6 [FY043]
IC50 [1, 16]: 10800 nM

CN(C)c1ccc(N=Nc2ccccn2)cc1.F[P-](F)(F)(F)(F)F.[I-].[Os+2].c1ccc(-c2ccccc2)cc1 [Complex 5, [(η^6-bip)Os(azpy-NMe2)I]PF6]
IC50 [1, 18]: 140 nM

[Os(η^6-p-cym)(OH-Azpy-NO2)I]PF6 [FY036]
IC50 [1, 16]: 290 nM

[Os(η^6-bip)(2-F-Azpy)I]PF6 [FY069]
IC50 [1, 16]: 630 nM
Inhibition of Tubulin Polimerziation [2]: 21.0%
IC50 ([2]; purified tubulin): ~20000 nM
effect on amount of tubulin polymerized ([2]; purified tubulin): reduced the amount of tubulin polymerized in a dose-dependent manner

[Os(η^6-bip)(1-CF3-4-Cl-Azpy)I]PF6 [FY107]
IC50 [1, 16]: 5700 nM
Inhibition of Tubulin Polimerziation [2]: 13.0%

[Os(η^6-p-cym)(1-Cl-Azpy)I]PF6 [FY112]
IC50 [1, 16]: 9000 nM

[(η^6-bip)Os(azpy-OH)Cl]PF6 [Complex 9]
IC50 [1, 17]: 800 nM

[Os(η^6-bip)(1-Cl-azpy)I]PF6 [FY110]
IC50 [1, 16]: 3700 nM
Inhibition of Tubulin Polimerziation [2]: 11.4%

N.N.[Cl][Pt][Cl] [Cisplatin, reference compound]
IC50 [1, 17]: 2000 nM
IC50 [1, 19]: 2000 nM
IC50 [3]: 4000 nM
IC50 [4]: 4100 nM
IC50 [5]: 2600 nM
IC50 [6]: 3000 nM
IC50 [7]: 21500 nM
IC50 [8]: 1400 nM
GI50 [9]: 10300 nM
TGI [9]: 50700 nM
Maximum % weight loss [10]: 8%
Median tumour doubling time [10]: 6.4 days
day of maximum % weight loss [10]: 6 days

Cc1ccc(C(C)C)cc1.F[P-](F)(F)(F)(F)F.Oc1ccc(N=Nc2ccccn2)cc1.[I-].[Os+2] [Complex 4, [(η^6-p-cym)Os(Azpy-OH)I]PF6]
IC50 [1, 17]: 300 nM

[(η^6-p-cym)Os(pp)Cl]PF6 [Complex 15]
IC50 [1, 19]: 26200 nM

[(η^6-bip)Os(Azpy)Cl]PF6 [Complex 7]
IC50 [1, 17]: 13900 nM

[Os(η^6-bip)(pp-NMe2)I]PF6 [FY012]
IC50 [1, 16]: 140 nM

[Os(η^6-p-cym)(pp-OH)Cl]PF6 [FY119]
IC50 [1, 16]: 5500 nM

[Os(η^6-bip)(3-Cl-Azpy)I]PF6 [FY052]
IC50 [1, 16]: 22000 nM

[(η^6-p-cym)Os(Azpy)Cl]PF6 [Complex 8]
IC50 [1, 18]: > 50000 nM
IC50 [1, 17]: > 50000 nM
stability and hydrolysis in aqueous solution [11]: disappearance of the peaks corresponding to the azopyridine ligand

[Os(η^6-p-cym)(OH-Azpy-NO2)Cl]PF6 [FY033]
IC50 [1, 16]: 300 nM

F[P-](F)(F)(F)(F)F.[I-].[Os+2].c1ccc(-c2ccccc2)cc1.c1ccc(N=Nc2ccccn2)cc1 [Complex 1, [(η^6-bip)Os(Azpy)I]PF6]
IC50 [1, 17]: 5400 nM

CN(C)c1ccc(N=Nc2ccccn2)cc1.F[P-](F)(F)(F)(F)F.[Cl-].[Os+2].c1ccc(-c2ccccc2)cc1 [Complex 11, [(η^6-bip)Os(azpy-NMe2)Cl]PF6]
IC50 [1, 17]: 3900 nM
cytotoxicity against the A549 cancer cell line [12]: did not show significant cytotoxicity
activity towards human A549 lung cancer cells ([12]; up to concentrations of 100 μM): No activity
solubility (in water / under test conditions), earlier report ([13]; listed as 11): low solubility
solubility (in water / under test conditions), earlier report ([13]; listed as [(η^6-bip)Os(Azpy-NMe2)Cl]PF6): poor solubility in water

[(η^6-p-cym)Os(Azpy-OH)Cl]PF6 [Complex 10]
IC50 [1, 17]: 1300 nM

[Os(η^6-bip)(2-Cl-Azpy)I]PF6 [FY078]
IC50 [1, 16]: 1000 nM

[(η^6-p-cym)Os(pp-NMe2)I]PF6 [Complex 13]
IC50 [1, 19]: 400 nM

[(η^6-p-cym)Os(pp-NMe2)Cl]PF6 [Complex 16]
IC50 [1, 19]: 3500 nM

[Os(η^6-bip)(2-I-Azpy)I]PF6 [FY070]
IC50 [1, 16]: 220 nM

[Os(η^6-bip)(2-Br-Azpy)I]PF6 [FY061]
IC50 [1, 16]: 590 nM

[Os(η^6-bip)(pp-NMe2)Cl]PF6 [FY093]
IC50 [1, 16]: 440 nM

[(η^6-bip)Os(Azpy-O)I].0.5H2O [3*]
IC50 [1, 18]: 140 nM
IC50 [3]: < 300 nM
IC50 [4]: 400 nM
IC50 [5]: < 300 nM
IC50 [6]: 250 nM
IC50 [7]: < 300 nM
IC50 [8]: 400 nM
difference in potency to cisplatin, RT-112 ([8]; RT-112): 3 fold
toxicity / deleterious effects [14]: no evident toxicity; also recorded: negligible deleterious effects
pKa of the hydroxyl group [15]: less than 7

[(η^6-bip)Os(pp)I]PF6 [Complex 14]
IC50 [1, 19]: 18600 nM
